Measured values: ChEMBL document CHEMBL1201862, “PubChem BioAssay data set” (2004)
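Values below derive from 48-hour exposures of cells grown in 96-well plates, with endpoints linearly interpolated between the two concentrations bracketing the appropriate inhibition level. GI50 marks 50% less growth.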 Activity calls are given as the source filed them. Cut-off read from the data, not from the text of the source: active = GI50 up to about 1.1 µM and inactive = higher.

Legend:
Assay in all cases: NCI anticancer screen, dose series, 48 h
EKVX = system: EKVX
HCT-116 = system: HCT-116
A498 = system: A498
SK-OV-3 = system: SK-OV-3
COLO 205 = system: COLO 205
A549 = system: A549
CAKI-1 = system: CAKI-1
U-251 = system: U-251
OVCAR-8 = system: OVCAR-8
SN12C = system: SN12C
OVCAR-4 = system: OVCAR-4
NCI-H522 = system: NCI-H522
RPMI-8226 = system: RPMI-8226
HT-29 = system: HT-29
TK-10 = system: TK-10
SK-MEL-5 = system: SK-MEL-5
HCT-15 = system: HCT-15

Row | Compound | GI50 (EKVX) | GI50 (HCT-116) | GI50 (A498) | GI50 (SK-OV-3) | GI50 (COLO 205) | GI50 (A549) | GI50 (CAKI-1) | GI50 (U-251) | GI50 (OVCAR-8) | GI50 (SN12C) | GI50 (OVCAR-4) | GI50 (NCI-H522) | GI50 (RPMI-8226) | GI50 (HT-29) | GI50 (TK-10) | GI50 (SK-MEL-5) | GI50 (HCT-15)
1 | COc1ccccc1NC(=O)C1=C(C)NC(C)=C(C(=O)Nc2ccccc2OC)C1c1ccc(N(C)C)cc1 | 27.4 µM (inactive) | 25.4 µM (inactive) | 32.8 µM (inactive) | 38.7 µM (inactive) | 31 µM (inactive) | 42.6 µM (inactive) | 23.2 µM (inactive) | 30.4 µM (inactive) | 24 µM (inactive) | 26.9 µM (inactive) | 29.6 µM (inactive) | 17.6 µM (inactive) | 16.6 µM (inactive) | 45.4 µM (inactive) | 34.8 µM (inactive) | 30.8 µM (inactive) | 
2 | COC(=O)C(=Cc1cc(OC)c(OC)c(OC)c1-c1cc2c(cc1C(C)=O)OCO2)C(=O)OC | 72.8 µM (inactive) | 32.2 µM (inactive) |  | 71.9 µM (inactive) | 35.3 µM (inactive) | 55.6 µM (inactive) | 54.3 µM (inactive) | 37.2 µM (inactive) | 59 µM (inactive) | 27.7 µM (inactive) |  | 28.5 µM (inactive) | 35.5 µM (inactive) | 40.6 µM (inactive) | 77.8 µM (inactive) | 32.7 µM (inactive) | 24.2 µM
3 | CC(=O)NNc1nc(C)c(C(=O)NNC(=O)C(=O)Nc2c(C)cccc2C(C)C)s1 | > 100 µM (inactive) | 84.1 µM (inactive) | 51.4 µM (inactive) | > 100 µM (inactive) | > 100 µM (inactive) | 61 µM (inactive) |  | 5.97 µM (inactive) | 94.2 µM (inactive) | > 100 µM (inactive) | 32.8 µM (inactive) | 35.4 µM (inactive) | 57.5 µM (inactive) | > 100 µM (inactive) | > 100 µM (inactive) | 95.1 µM (inactive) | 60.3 µM
4 | NC(=O)N/N=C/C(/C=N/NC(N)=O)[N+](=O)[O-] | > 100 µM (inactive) | > 100 µM (inactive) | > 100 µM (inactive) | > 100 µM (inactive) | > 100 µM (inactive) | > 100 µM (inactive) | > 100 µM (inactive) |  |  | > 100 µM (inactive) | > 100 µM (inactive) | > 100 µM (inactive) | > 100 µM (inactive) | > 100 µM (inactive) | > 100 µM (inactive) |  | 
5 | COc1cc2c(c3oc(-c4ccc5c(c4)OCO5)c(O)c(=O)c13)CCC(C)(C)O2 | > 100 µM (inactive) |  | > 100 µM (inactive) | > 100 µM (inactive) | > 100 µM (inactive) | > 100 µM (inactive) |  |  | > 100 µM (inactive) | > 100 µM (inactive) |  |  | 34.5 µM (inactive) | > 100 µM (inactive) | > 100 µM (inactive) | > 100 µM (inactive) | > 100 µM
6 | CCOC(=O)Oc1ccc2[nH]c3c(C)cc(N)c(C)c3c2c1 | > 100 µM (inactive) | > 100 µM (inactive) |  |  | > 100 µM (inactive) | > 100 µM (inactive) | > 100 µM (inactive) |  | > 100 µM (inactive) | > 100 µM (inactive) | > 100 µM (inactive) | > 100 µM (inactive) | 72.3 µM (inactive) | > 100 µM (inactive) | > 100 µM (inactive) | > 100 µM (inactive) | > 100 µM
7 | CC(=O)OC1COC(N2C(=O)/C(=N\NC(N)=S)c3cc(Br)ccc32)C(OC(C)=O)C1OC(C)=O (configuration not stated) | 56.1 µM (inactive) | 27.2 µM (inactive) |  | > 100 µM (inactive) | 38.1 µM (inactive) | 43.3 µM (inactive) | > 100 µM (inactive) | 53.5 µM (inactive) | 49.1 µM (inactive) | > 100 µM (inactive) | 42.6 µM (inactive) | > 100 µM (inactive) | 17.6 µM (inactive) | > 100 µM (inactive) | > 100 µM (inactive) | 85.9 µM (inactive) | 61.9 µM
8 | CCCN(CCCC(NC(C)=O)C(=O)NCc1ccccc1)C(=O)NCCCl (configuration not stated) | > 100 µM (inactive) | > 100 µM (inactive) |  |  | > 100 µM (inactive) | > 100 µM (inactive) | > 100 µM (inactive) | > 100 µM (inactive) | > 100 µM (inactive) | > 100 µM (inactive) | > 100 µM (inactive) | > 100 µM (inactive) | > 100 µM (inactive) | > 100 µM (inactive) | > 100 µM (inactive) |  | > 100 µM
9 | COC(=O)C1=CO[C@@H](OC2CC(CO)C(O)C(O)C2O)[C@@H]2[C@@H](C)[C@@H](OC(=O)/C=C/c3ccccc3)[C@@H](O)[C@H]12.COC(=O)C1=CO[C@@H](OC2CC(CO)C(O)C(O)C2O)[C@@H]2[C@@H](C)[C@@H](OC(=O)c3ccccc3)[C@@H](O)[C@H]12 (some centres not stated) | > 100 µM (inactive) | > 100 µM (inactive) | > 100 µM (inactive) | > 100 µM (inactive) | > 100 µM (inactive) | > 100 µM (inactive) | > 100 µM (inactive) | > 100 µM (inactive) | > 100 µM (inactive) | > 100 µM (inactive) | > 100 µM (inactive) | > 100 µM (inactive) | > 100 µM (inactive) | > 100 µM (inactive) | > 100 µM (inactive) | > 100 µM (inactive) | 
